One may read the pIC50 as the IC50 on a negative log10 scale, so that one unit is a factor of ten.

pIC50: −log10 of the molar value.

Data set [1] deals with recombinant DNMT3a (Homo sapiens, UniProt Q9Y6K1). Nature of the data set: DNMT3a enzyme kinetic (activity) assay, 3H-SAM filter. The conditions noted are these: read-out: IC50, inhibits DNMT3a activity. The format is biochemical. How it is done:
(§1) The enzyme kinetic studies were carried out by Reaction Biology Company. For the DNMT1 activity assay, the substrate solution, 0.001 mg/ml Poly(dI-dC): Poly(dI-dC) in 50 mM Tris-HCl, pH 7.5, 50 mM NaCl, 5 mM EDTA, 5 mM DTT, 1 mM PMSF, 5% glycerol, 0.01% Brij™35, 1% DMSO was used. For the DNMT3a/3b activity assay, 0.0075 mg/ml Lambda DNA in 50 mM Tris-HCl, pH 7.5, 50 mM NaCl, 5 mM EDTA, 5 mM DTT, 1 mM PMSF, 5% glycerol, 1% DMSO, was used. The indicated DNMT1, DNMT3a and DNMT3b were added to the appropriate substrate solution and gently mixed. Amounts of CA ranging from 5.08E-09 to 0.0001 M in DMSO were added to the reaction mixture by using Acoustic Technology (Echo® 550, LabCyte Inc. Sunnyvale, CA). The mixtures were first incubated for 15 min, then ^3H-SAM was added to the reaction mixture to initiate the reaction, and the mixture was incubated for 60 min at 30° C. Following incubation, the reaction mixture was finally transferred to filter-paper for detection of radioactivity counts.

Data set [2] has as its system HepG-2 cells. Nature of the data set: RT-qPCR of genes of lipid metabolism and calcium signaling. Format: cell-based, human. The note with it: concentration and time dependent. How it is done: After culturing HepG-2 cells in DMEM medium with HG for 72 hours followed by treating with 20 μM CA for 0, 3, 6, 12, and 24 hours, genomic DNA from 5×10^7 cells were extracted using QIAamp® DNA Mini Kit (QIAGEN, Hilden, Germany). Each sample, 6 μg, was sent to CD Genomics Co., Ltd (New York, USA) for analysis of WGBS. Total RNA was isolated using the Promega SV total RNA isolation system (Madison, WI, USA) with DNase treatment. Each sample, 2 μg, were sent to CD Genomics Co., Ltd (New York, USA) for analysis of RNA sequencing. The same samples, 2 μg, was used for the first-strand cDNA synthesis as recommended by the manufacturer (Invitrogen, Carlsbad, CA). RT-qPCR was performed using SYBR Green as the indicator on ABI 7500 Fast Real-Time PCR System (Applied Biosystems, Foster City, CA). Amplifications of j-actin or GAPDH were used as internal controls. Relative messenger RNA (mRNA) expression was quantified with the comparative cycle threshold (Ct) method using a sutiable primer set and was expressed as 2-ΔΔCt as described previously.
(Quantitative PCR measures a nucleic acid by following its amplification.)

In data set [3] the test system is Hep G2 cells. The format is in vitro ADME, human. The note with it: human, 24 h. From the text: Mitochondrial oxysterols, including cholestenoic acid (CA), 25-hydroxycholesterol (25HC), and 27-hydroxycholesterol (27HC), are potent regulators involved in important biological events such as lipid metabolism and inflammatory responses. However, their intracellular catabolic pathways have not been fully explored. In this study, we investigated the metabolic pathways of these oxysterols and their roles in the communication between hepatocytes and macrophages.

Data set [4] addresses recombinant DNMT3b (Homo sapiens, UniProt Q9UBC3). Nature of the data set: DNMT3b enzyme kinetic (activity) assay, 3H-SAM filter. The format is biochemical. The conditions noted are these: read-out: IC50, inhibits DNMT3b activity. How it is done: as §1
The test system of data set [5] is normal primary human hepatocytes (PHH).
Data set [6] concerns NAFLD mouse model. Description: western diet-induced NAFLD mice model, health and serum enzymes. Format: in vivo. The note with it: 10 mg/kg CA injection, two weeks.
Excerpt: The animal studies were approved by the Institutional Animal Care and Use Committee of McGuire Veterans Affairs Medical Center and conducted in accordance with the Declaration of Helsinki, the Guide for the Care and Use of Laboratory Animals, and all applicable regulations. In this study, a western diet-induced nonalcoholic fatty liver disease (NAFLD) mice model was used. To create the model, eight-week-old C57BL/6J female mice were purchased from the Jackson Laboratory and fed a western diet (TD.88137, Envigo) along with high glucose/fructose water (WDSW) containing 23.1 g/L fructose and 18.9 g/L glucose for 12 weeks. After establishing the model, the mice were separated into three groups based on their weight. For the control mice in each group, they received intravenous injection (IV) with vehicle (DMSO). In contrast, the treatment group mice were intravenously injected with 10 mg/kg of CA (dissolved in DMSO) with a total volume of less than 100 μl. During the treatment period, injections were administered every two days. All mice were housed under identical conditions in an aseptic facility with a 12-hour light/12-hour dark cycle and provided with free access to water and food (WDSW). Before scarification, the mice fasted overnight. Blood samples were collected, and the serum enzymatic activities of alkaline phosphatase (ALK), alanine aminotransferase (ALT), and aspartate aminotransferase (AST) were measured in the clinical laboratory at McGuire Veterans Affairs Medical Center.

Chain of recombinant DNMT3a (Q9Y6K1 whole entry, looked up): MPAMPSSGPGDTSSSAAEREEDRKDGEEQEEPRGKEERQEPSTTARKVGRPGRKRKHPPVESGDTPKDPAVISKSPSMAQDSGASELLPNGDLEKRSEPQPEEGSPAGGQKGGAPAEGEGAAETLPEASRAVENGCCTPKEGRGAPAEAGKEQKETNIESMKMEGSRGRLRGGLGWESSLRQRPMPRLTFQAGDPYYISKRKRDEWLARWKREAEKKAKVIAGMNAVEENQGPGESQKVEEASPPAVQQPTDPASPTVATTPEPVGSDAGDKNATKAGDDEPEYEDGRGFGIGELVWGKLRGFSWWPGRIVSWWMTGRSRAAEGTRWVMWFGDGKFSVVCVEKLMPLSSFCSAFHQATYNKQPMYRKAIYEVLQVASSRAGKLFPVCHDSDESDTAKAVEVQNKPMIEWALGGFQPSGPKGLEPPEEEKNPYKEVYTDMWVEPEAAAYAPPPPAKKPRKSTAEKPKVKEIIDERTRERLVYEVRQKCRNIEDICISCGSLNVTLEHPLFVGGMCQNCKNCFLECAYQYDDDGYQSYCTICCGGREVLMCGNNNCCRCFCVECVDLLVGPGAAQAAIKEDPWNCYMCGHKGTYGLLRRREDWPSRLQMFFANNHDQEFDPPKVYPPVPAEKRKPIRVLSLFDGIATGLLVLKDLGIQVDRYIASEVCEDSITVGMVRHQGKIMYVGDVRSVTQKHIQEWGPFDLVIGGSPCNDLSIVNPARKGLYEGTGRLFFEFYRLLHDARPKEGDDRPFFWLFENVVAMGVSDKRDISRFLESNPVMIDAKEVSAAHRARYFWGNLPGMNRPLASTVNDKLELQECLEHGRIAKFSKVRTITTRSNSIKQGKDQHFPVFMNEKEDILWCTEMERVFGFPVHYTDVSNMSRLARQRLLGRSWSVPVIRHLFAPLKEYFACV

Take `CC(CCC[C@@H](C)[C@H]1CC[C@H]2[C@@H]3CC=C4C[C@@H](O)CC[C@]4(C)[C@H]3CC[C@]12C)C(=O)O` (stereo partly drawn) [CA, 3β-hydroxy-5-cholestenoic acid]: the negative-log IC50 (pIC50) in data set [1] is 5.08. Besides, in data set [2] (0-20 μM CA 6 hours), the “levels of mRNA encoding FAS” value was “decreased”, the “levels of mRNA encoding HMGR” value is given as “decreased” and the “levels of mRNA encoding PCSK9” value was “decreased”. Further, in data set [2], the “expression of CACNA1D” value was “up-regulated”, the “expression of CACNA1H” value is listed as “up-regulated” and the “expression of CAMK2B” value is reported as “up-regulated”. Further, the “maximum of novel molecular ion m/z 495 (CA3S) formed from CA” value in data set [3] is reported as 90%. Further, the pIC50 in data set [4] is 5.31. Besides, the “death of normal primary human hepatocytes” value in data set [5] was “not the death”. Further, in data set [6], the “in vivo toxicity, health of mice” value is “remained in good health”; the “serum activity of ALK” value is “significant decrease”; the “serum activity of ALT” value was “significant decrease”.

The values above are taken from US20260137701A1, “CHOLESTENOIC ACID (CA) AND A SULFATED DERIVATIVE THEREOF, 3[BETA]-SULFATE-5-CHOLESTENOIC ACID (CA3S), AS ENDOGENOUS EPIGENETIC REGULATORS” (priority 2022, published 2026).
